Measured values: patent US20060014801A1, “Prevention and treatment of cognitive impairment using (R)-(-)-5-methyl-1-nicotynoyl-2-pyrazoline (MNP) and analogs” (The Johns Hopkins University, priority 2002, published 2006)
Like-named read-outs stand apart in the source and are kept apart here.

Experiment: Pharmacokinetics of MNP in the rat (plasma, LC/MS/MS)
Assay type: in vivo, male Sprague-Dawley rats
Conditions: for concentration at 5 min / concentration at 15 min / concentration at 30 min / concentration at 60 min / concentration at 120 min / concentration at 180 min / concentration at 240 min / concentration at 480 min / concentration at 720 min / concentration at 1440 min: mean ± s.e.m., 3 rats, read-out: MNP plasma levels
Experimental: Pharmacokinetic experiments were conducted. MNP was dissolved in saline solution (0.9% NaCl) and administered to male Sprague-Dawley rats (weighing 250-315 grams) with vascular catheters surgically placed in both jugular veins (Charles River, Wilmington, Mass.). The catheter on the left jugular vein was used for intravenous infusion of 5 mg/kg MNP (in the animals that received the i.v. dosing), while the catheter on the right jugular vein was used for blood sample collection. Oral doses of MNP (50 and 200 mg/kg) were administered by oral gavage. […] The samples were collected in heparin-coated microtainers, spun down in a microcentrifuge (14,000 rpm for 7 minutes) to separate out the blood plasma and frozen until analyzed. Plasma levels were quantitated by LC/MS/MS analysis (Applied Biosystems/MDS SCIEX API 3000).
The pharmacokinetic parameters Cmax, tmax, area-under-the-curve (AUC), clearance, and half-life (t1/2) were calculated for oral doses of MNP (50 and 200 mg/kg) and are described in Table II. These parameters are compared to the intravenous dose (5 mg/kg) to determine the oral bioavailability (Foral) of MNP in the rat. […] The roughly 30-minute terminal half-life calculated for the intravenous dose of MNP (5 mg/kg) was similar to previously reported data (Umemura et al., Stroke, 1996; 27:1624-1628).

[1] = male, Sprague-Dawley, plasma, intravenous, 5 mg/kg i.v.
[2] = male, Sprague-Dawley, plasma, iv, 5 mg/kg i.v., approximate value
[3] = male, Sprague-Dawley, plasma, oral, 50 mg/kg p.o.
[4] = male, Sprague-Dawley, plasma, oral, 200 mg/kg p.o.
[5] = male, Sprague-Dawley, plasma, po, 50 mg/kg p.o., approximate value
[6] = male, Sprague-Dawley, plasma, po, 200 mg/kg p.o., approximate value

## C[C@@H]1CC=NN1C(=O)c1cccnc1 [MNP, (R)-(−)-5-methyl-1-nicotinoyl-2-pyrazoline]
50 mg/kg oral dose
  Time of secondary plasma peak: about 8 hours
50 mg/kg p.o., approximate value, Clearance = Dose/AUC
  ˜Clearance: ~4.8 mL/min
200 mg/kg oral dose
  Plasma levels at 24 hours post-administration: significant plasma levels
200 mg/kg p.o., approximate value, Clearance = Dose/AUC
  ˜Clearance: ~7.8 mL/min
Based on AUC and Foral for both oral doses (50 and 200 mg/kg)
  Oral bioavailability (in words): highly bioavailable
male, Sprague-Dawley, plasma, 5 mg/kg intravenous dose, read-out: Terminal half-life
  half-life: ~30 min
[1]
  concentration at 5 min: 6550 ± 32 ng/mL
  concentration at 15 min: 4530 ± 60 ng/mL
  concentration at 30 min: 2880 ± 95 ng/mL
  concentration at 60 min: 1300 ± 75 ng/mL
  concentration at 120 min: 272 ± 9 ng/mL
  concentration at 180 min: 51 ± 3 ng/mL
  concentration at 240 min: 13 ± 1 ng/mL
  concentration at 480 min: 2 ± 1 ng/mL
  concentration at 720 min: 3 ± 2 ng/mL
  concentration at 1440 min: 2 ± 0.5 ng/mL
[2]
  AUC: ~4220 ng·h/mL
  Cmax: ~6550 ng/mL
  Tmax: ~5 min
male, Sprague-Dawley, plasma, iv, 5 mg/kg i.v., approximate value, Clearance = Dose/AUC
  clearance: ~5.6 mL/min
male, Sprague-Dawley, plasma, oral, 50 mg/kg p.o. vs 5 mg/kg i.v., effects of saturation and accumulation unknown, read-out: ˜Bioavailability (Foral; %)
  bioavailability: ~119%
[3]
  concentration at 5 min: 16000 ± 1720 ng/mL
  concentration at 15 min: 16000 ± 933 ng/mL
  concentration at 30 min: 13600 ± 1120 ng/mL
  concentration at 60 min: 9980 ± 976 ng/mL
  concentration at 120 min: 6140 ± 1980 ng/mL
  concentration at 180 min: 4180 ± 1640 ng/mL
  concentration at 240 min: 2470 ± 792 ng/mL
  concentration at 480 min: 2850 ± 755 ng/mL
  concentration at 720 min: 536 ± 327 ng/mL
  concentration at 1440 min: 9 ± 6 ng/mL
male, Sprague-Dawley, plasma, oral, 200 mg/kg p.o. vs 5 mg/kg i.v., effects of saturation and accumulation unknown, read-out: ˜Bioavailability (Foral; %)
  bioavailability: ~80%
[4]
  concentration at 5 min: 50300 ± 2640 ng/mL
  concentration at 15 min: 41300 ± 3210 ng/mL
  concentration at 30 min: 36500 ± 5570 ng/mL
  concentration at 60 min: 21600 ± 3790 ng/mL
  concentration at 120 min: 11000 ± 2190 ng/mL
  concentration at 180 min: 5700 ± 1970 ng/mL
  concentration at 240 min: 5840 ± 1440 ng/mL
  concentration at 480 min: 2920 ± 343 ng/mL
  concentration at 720 min: 1160 ± 360 ng/mL
  concentration at 1440 min: 6250 ± 2830 ng/mL
[5]
  AUC: ~50200 ng·h/mL
  Cmax: ~16000 ng/mL
  Tmax: ~10 min
male, Sprague-Dawley, plasma, po, 50 mg/kg p.o., approximate value, read-out: ˜t1/2
  half-life: ~150 min
[6]
  AUC: ~134000 ng·h/mL
  Cmax: ~50300 ng/mL
  Tmax: ~5 min
male, Sprague-Dawley, plasma, po, 200 mg/kg p.o., approximate value, read-out: ˜t1/2
  half-life: ~90 min
male, Sprague-Dawley, plasma, po, based on the results of Example 2, read-out: Oral bioavailability
  bioavailability: ≤ 80%
Oral gavage, significant plasma levels at the 5-min time point
  Oral absorption: rapidly absorbed
